{
  "source": "patent US7425557B2",
  "about": "“Inhibitors of glycogen synthase kinase 3” (Novartis Vaccines and Diagnostics, Inc., priority 1998, dated 2008)",
  "data": [
    {"biological_target": "human GSK3β (Homo sapiens, UniProt P49841)", "sequence (P49841 whole entry)": "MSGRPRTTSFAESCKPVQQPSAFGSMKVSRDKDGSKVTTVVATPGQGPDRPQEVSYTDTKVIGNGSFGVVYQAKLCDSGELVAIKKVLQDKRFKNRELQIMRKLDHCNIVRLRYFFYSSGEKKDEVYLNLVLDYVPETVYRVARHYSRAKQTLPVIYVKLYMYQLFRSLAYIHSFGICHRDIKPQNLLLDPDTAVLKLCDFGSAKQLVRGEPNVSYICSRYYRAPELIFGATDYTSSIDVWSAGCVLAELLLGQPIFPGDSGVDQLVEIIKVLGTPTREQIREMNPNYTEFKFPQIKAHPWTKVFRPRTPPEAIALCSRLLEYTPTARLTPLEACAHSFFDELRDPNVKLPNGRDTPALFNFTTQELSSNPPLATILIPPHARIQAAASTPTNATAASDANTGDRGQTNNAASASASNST", "assay": "Screening for GSK3 inhibitory activity using a cell-free assay", "assay_type": "biochemical", "settings": "read-out: IC50 with respect to GSK3", "method_in_brief": "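Compounds in DMSO were tested against human GSK3β over a three-hour kinase reaction. Radiolabeled phosphate transferred to the peptide was captured on streptavidin plates after EDTA/ATP stop and quantified by scintillation counting. Signal was plotted versus compound concentration.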", "units": {"IC50": "µM"}, "values": [
      {"smiles": "CCOC(=O)c1cnc(NCCNc2ccc(C(F)(F)F)cn2)nc1-c1ccc(C#N)cc1", "note": "[ethyl 4-(4-cyanophenyl)-2-[(2-{[5-(trifluoromethyl)(2-pyridyl)]amino}ethyl)-amino]pyrimidine-5-carboxylate]", "IC50": "≤ 1"},
      {"smiles": "CCOC(=O)c1cnc(NCCNc2ccc([N+](=O)[O-])c(NC)n2)nc1-c1ccc(C#N)cc1", "note": "[ethyl 4-(4-cyanophenyl)-2-[(2-{[6-(methylamino)-5-nitro(2-pyridyl)]amino}ethyl)amino]pyrimidine-5-carboxylate]", "IC50": "≤ 10"},
      {"smiles": "CCOC(=O)c1cnc(NCCNc2ccc3ccccc3n2)nc1-c1ccc(C#N)cc1", "note": "[ethyl 4-(4-cyanophenyl)-2-{[2-(2-quinolylamino)ethyl]amino}pyrimidine-5-carboxylate]", "IC50": "≤ 10"},
      {"smiles": "CCOC(=O)c1cnc(NCCc2cccc(OC)c2)nc1-c1ccc(C#N)cc1", "note": "[ethyl 4-(4-cyanophenyl)-2-{[2-(3-methoxyphenyl)ethyl]amino}pyrimidine-5-carboxylate]", "IC50": "≤ 10"},
      {"smiles": "CCOC(=O)c1cnc(NCCNc2ncccn2)nc1-c1ccc(C#N)cc1", "note": "[ethyl 4-(4-cyanophenyl)-2-{[2-(pyrimidin-2-ylamino)ethyl]amino}pyrimidine-5-carboxylate]", "IC50": "≤ 10"},
      {"smiles": "CCOC(=O)c1cnc(NCCNc2ccc([N+](=O)[O-])cn2)nc1-c1ccc(CC)cc1", "note": "[ethyl 4-(4-ethylphenyl)-2-({2-[(5-nitro(2-pyridyl))amino]ethyl}amino)pyrimidine-5-carboxylate]", "IC50": "≤ 1"},
      {"smiles": "CCOC(=O)c1cnc(NCCNc2ccc([N+](=O)[O-])cn2)nc1-c1ccc(F)cc1", "note": "[ethyl 4-(4-fluorophenyl)-2-({2-[(5-nitro(2-pyridyl))amino]ethyl}amino)pyrimidine-5-carboxylate]", "IC50": "≤ 1"},
      {"smiles": "CCOC(=O)c1cnc(NCCc2ccccn2)nc1-c1ccc(F)cc1", "note": "[ethyl 4-(4-fluorophenyl)-2-[(2-(2-pyridyl)ethyl)amino]pyrimidine-5-carboxylate]", "IC50": "≤ 10"},
      {"smiles": "CCOC(=O)c1cnc(NCCNc2ccc([N+](=O)[O-])cn2)nc1-c1ccc(OC)cc1", "note": "[ethyl 4-(4-methoxyphenyl)-2-({2-[(5-nitro(2-pyridyl))amino]ethyl}amino)pyrimidine-5-carboxylate]", "IC50": "≤ 1"},
      {"smiles": "CCOC(=O)c1cnc(NCCc2ccccn2)nc1-c1ccc(OC)cc1", "note": "[ethyl 4-(4-methoxyphenyl)-2-[(2-(2-pyridyl)ethyl)amino]pyrimidine-5-carboxylate]", "IC50": "≤ 10"},
      {"smiles": "CCOC(=O)c1cnc(NCCNc2ccc([N+](=O)[O-])cn2)nc1-c1ccc(C)cc1", "note": "[ethyl 4-(4-methylphenyl)-2-({2-[(5-nitro(2-pyridyl))amino]ethyl}amino)pyrimidine-5-carboxylate]", "IC50": "≤ 1"},
      {"smiles": "CCOC(=O)c1cnc(NCCNc2ccc([N+](=O)[O-])cn2)nc1-c1ccc(SC)cc1", "note": "[ethyl 4-(4-methylthiophenyl)-2-({2-[(5-nitro(2-pyridyl))amino]ethyl}amino)pyrimidine-5-carboxylate]", "IC50": "≤ 1"},
      {"smiles": "CCOC(=O)c1cnc(NCCNc2ccc([N+](=O)[O-])cn2)nc1-c1cncc(Br)c1", "note": "[ethyl 4-(5-bromo(3-pyridyl))-2-({2-[(5-nitro(2-pyridyl))amino]ethyl}amino)pyrimidine-5-carboxylate]", "IC50": "≤ 10"},
      {"smiles": "CCOC(=O)c1cnc(NCCNc2ccc([N+](=O)[O-])cn2)nc1-c1ccc(N2CCOCC2)nc1", "note": "[ethyl 4-(6-morpholin-4-yl(3-pyridyl))-2-({2-[(5-nitro(2-pyridyl))amino]-ethyl}amino)pyrimidine-5-carboxylate]", "IC50": "≤ 1"},
      {"smiles": "CCOC(=O)c1ccc(-c2ccnc(NCCNc3ccc([N+](=O)[O-])cn3)n2)cc1", "note": "[ethyl 4-[2-({2-[(5-nitro-2-pyridyl)amino]ethyl}amino)pyrimidin-4-yl]benzoate]", "IC50": "≤ 10"},
      {"smiles": "CCOC(=O)c1cnc(NCCNc2ccc([N+](=O)[O-])cn2)nc1-c1cc(C(F)(F)F)cc(C(F)(F)F)c1", "note": "[ethyl 4-[3,5-bis(trifluoromethyl)-phenyl]-2-({2-[(5-nitro(2-pyridyl))amino]ethyl}amino)pyrimidine-5-carboxylate]", "IC50": "≤ 10"},
      {"smiles": "CCOC(=O)c1cnc(NCCNc2ccc([N+](=O)[O-])cn2)nc1-c1ccc(N(CC)CC)cc1", "note": "[ethyl 4-[4-(diethylamino)phenyl]-2-({2-[(5-nitro(2-pyridyl))amino]ethyl}-amino)pyrimidine-5-carboxylate]", "IC50": "≤ 10"},
      {"smiles": "CCOC(=O)c1cnc(NCCNc2ccc([N+](=O)[O-])cn2)nc1-c1ccc(N(C)C)cc1", "note": "[ethyl 4-[4-(dimethylamino)phenyl]-2-({2-[(5-nitro(2-pyridyl))amino]ethyl}-amino)pyrimidine-5-carboxylate]", "IC50": "≤ 1"},
      {"smiles": "CCOC(=O)c1cnc(NCCNc2ccc([N+](=O)[O-])cn2)nc1-c1ccc(S(C)(=O)=O)cc1", "note": "[ethyl 4-[4-(methyl-sulfonyl)phenyl]-2-({2-[(5-nitro(2-pyridyl))amino]ethyl}amino)pyrimidine-5-carboxylate]", "IC50": "≤ 1"},
      {"smiles": "CCOC(=O)c1cnc(NCCNc2ccc([N+](=O)[O-])cn2)nc1-c1ccc(C(C)(C)C)cc1", "note": "[ethyl 4-[4-(tert-butyl)-phenyl]-2-({2-[(5-nitro(2-pyridyl))amino]ethyl}amino)pyrimidine-5-carboxylate]", "IC50": "≤ 1"},
      {"smiles": "CCOC(=O)c1cnc(NCCNc2ccc([N+](=O)[O-])cn2)nc1Nc1ccc(Cl)cc1Cl", "note": "[ethyl 4-[(2,4-dichlorophenyl)amino]-2-({2-[(5-nitro(2-pyridyl))amino]-ethyl}amino)pyrimidine-5-carboxylate]", "IC50": "≤ 10"},
      {"smiles": "CCOC(=O)c1cnc(NCCNc2ccc([N+](=O)[O-])cn2)nc1NCc1ccccc1Cl", "note": "[ethyl 4-{[(2-chlorophenyl)methyl]amino}-2-({2-[(5-nitro(2-pyridyl))amino]ethyl}amino)pyrimidine-5-carboxylate]", "IC50": "≤ 10"},
      {"smiles": "CCOC(=O)c1cnc(NCCNc2ccc([N+](=O)[O-])cn2)nc1NCc1cccc(Br)c1", "note": "[ethyl 4-{[(3-bromophenyl)methyl]amino}-2-({2-[(5-nitro(2-pyridyl))amino]ethyl}amino)pyrimidine-5-carboxylate]", "IC50": "≤ 10"},
      {"smiles": "CCOC(=O)c1cnc(NCCNc2ccc([N+](=O)[O-])cn2)nc1NCc1ccc(C#N)cc1", "note": "[ethyl 4-{[(4-cyanophenyl)methyl]amino}-2-({2-[(5-nitro(2-pyridyl))amino]-ethyl}amino)pyrimidine-5-carboxylate]", "IC50": "≤ 1"},
      {"smiles": "CCOC(=O)c1cnc(NCCNc2ccc([N+](=O)[O-])cn2)nc1-c1ccc(N2CCOCC2)cc1", "note": "[ethyl-4-(morpholin-4-ylphenyl)-2-({2-[(5-nitro(2-pyridyl))amino]ethyl}amino)pyrimidine-5-carboxylate]", "IC50": "≤ 1"},
      {"smiles": "COC(=O)c1cnc(NCCNc2ccc([N+](=O)[O-])cn2)nc1-c1cccnc1", "note": "[methyl 2-({2-[(5-nitro(2-pyridyl))amino]ethyl}amino)-4-(3-pyridyl)pyrimidine-5-carboxylate]", "IC50": "≤ 10"},
      {"smiles": "COC(=O)c1cnc(NCCNc2ccc([N+](=O)[O-])cn2)nc1-c1ccc(C#N)cc1", "note": "[methyl 4-(4-cyanophenyl)-2-({2-[(5-nitro(2-pyridyl))amino]ethyl}amino)pyrimidine-5-carboxylate]", "IC50": "≤ 1"},
      {"smiles": "CCOC(=O)c1cnc(NCCNc2ccc(C(=O)OC)cn2)nc1-c1ccc(C#N)cc1", "note": "[methyl 6-[(2-{[4-(4-cyanophenyl)-5-(ethoxycarbonyl)pyrimidin-2-yl]amino}ethyl)amino]pyridine-3-carboxylate]", "IC50": "≤ 10"},
      {"smiles": "N#Cc1ccc(-c2nc(NCCNc3ccc([N+](=O)[O-])cn3)ncc2C(=O)OCc2ccccc2)cc1", "note": "[phenylmethyl 4-(4-cyanophenyl)-2-({2-[(5-nitro(2-pyridyl))amino]ethyl}amino)pyrimidine-5-carboxylate]", "IC50": "≤ 1"},
      {"smiles": "CC(C)(C)OC(=O)c1cnc(NCCNc2ccc([N+](=O)[O-])cn2)nc1-c1ccc(C#N)cc1", "note": "[tert-butyl 4-(4-cyanophenyl)-2-({2-[(5-nitro(2-pyridyl))amino]-ethyl}amino)pyrimidine-5-carboxylate]", "IC50": "≤ 1"},
      {"smiles": "CCOC(=O)c1cnc(NCCNc2ccc(C(=O)OC(C)(C)C)cn2)nc1-c1ccc(C#N)cc1", "note": "[tert-butyl 6-[(2-{[4-(4-cyanophenyl)-5-(ethoxycarbonyl)pyrimidin-2-yl]amino}ethyl)amino]pyridine-3-carboxylate]", "IC50": "≤ 10"},
      {"smiles": "O=[N+]([O-])c1ccc(NCCNc2nccc(-c3cnccn3)n2)nc1", "note": "[{2-[(5-nitro(2-pyridyl))amino]ethyl}(4-pyrazin-2-ylpyrimidin-2-yl)amine]", "IC50": "≤ 10"},
      {"smiles": "O=[N+]([O-])c1ccc(NCCNc2ncc([N+](=O)[O-])c(-c3ccccc3)n2)nc1", "note": "[{2-[(5-nitro(2-pyridyl))amino]ethyl}(5-nitro-4-phenylpyrimidin-2-yl)amine]", "IC50": "≤ 1"},
      {"smiles": "O=[N+]([O-])c1ccc(NCCNc2ccc([N+](=O)[O-])c(NCc3ccccc3)n2)nc1", "note": "[{2-[(5-nitro(2-pyridyl))amino]ethyl}{5-nitro-6-[benzylamino](2-pyridyl)}amine]", "IC50": "≤ 10"},
      {"smiles": "Cc1c[nH]c(-c2cnc(NCCNc3ccc([N+](=O)[O-])c(N)n3)nc2-c2ccc(Cl)cc2Cl)n1", "note": "[{2-[(6-amino-5-nitro(2-pyridyl))amino]-ethyl}[4-(2,4-dichlorophenyl)-5-(4-methylimidazol-2-yl)pyrimidin-2-yl]amine]", "IC50": "≤ 1"},
      {"smiles": "Nc1nc(NCCNc2ncc(N3CCNCC3)c(-c3ccc(Cl)cc3Cl)n2)ccc1[N+](=O)[O-]", "note": "[{2-[(6-amino-5-nitro(2-pyridyl))amino]-ethyl}[4-(2,4-dichlorophenyl)-5-piperazinylpyrimidin-2-yl]amine]", "IC50": "≤ 1"},
      {"smiles": "Cn1ccnc1-c1cnc(NCCNc2ccc([N+](=O)[O-])c(N)n2)nc1-c1ccc(Cl)cc1Cl", "note": "[{2-[(6-amino-5-nitro(2-pyridyl))amino]ethyl}[4-(2,4-dichlorophenyl)-5-(1-methylimidazol-2-yl)pyrimidin-2-yl]amine]", "IC50": "≤ 1"},
      {"smiles": "CN1CCN(c2cnc(NCCNc3ccc([N+](=O)[O-])c(N)n3)nc2-c2ccc(Cl)cc2Cl)CC1", "note": "[{2-[(6-amino-5-nitro(2-pyridyl))amino]ethyl}[4-(2,4-dichlorophenyl)-5-(4-methylpiperazinyl)-pyrimidin-2-yl]amine]", "IC50": "≤ 1"}
    ]}
  ]
}
